Reference: PMC11396935, “Exploration of Compounds with 2-Phenylbenzo[d]oxazole Scaffold as Potential Skin-Lightening Agents through Inhibition of Melanin Biosynthesis and Tyrosinase Activity” (Molecules, 2024)
Where two headings read alike, the source gives them in different places.

How the values were obtained:
B16F10 cells = assay: Cellular melanin content assay in B16F10 cells; type: cell-based, murine; details: 72 h; for melanin content in B16F10 cells: 1, 2, 5 μM, α-MSH 1 μM + IBMX 200 μM; for melanin content in B16F10 cells at 5 μM vs kojic acid: compound 5 μM, kojic acid 5 μM, α-MSH + IBMX
Procedure: The B16F10 cells were exposed to each compound (1, 2, and 5 μM) for 1 h. Following this, stimulators (1 μM α-MSH [α-melanocyte-stimulating hormone] and 200 μM IBMX [3-isobutyl-1-methylxanthine]) were treated for 72 h. Kojic acid (5 μM) was utilized as a comparative control.
3.8. Cellular Melanin Content Level Assay in B16F10 Cells
The effects of compounds 3, 8, and 13 on B16F10 cellular melanin production were investigated using a previously reported method. B16F10 cells (5 × 10^3 cells per well) were seeded in a 6-well plate and cultured under the same conditions as the cell culture for 24 h. […] Stimulators, including 1 μM α-melanocyte-stimulating hormone (α-MSH) and 200 μM 3-isobutyl-1-methylxanthine (IBMX), were then added. After 72 h of cultivation, the cells were rinsed with PBS, detached from the bottom of each well using Trypsin-EDTA, and centrifuged for 10 min at 10,000× g and 4 °C. The obtained pellets were lysed with 100 μL of 1N-NaOH solution for 1 h at 60 °C and transferred to a 96-well plate. The optical density was measured at 405 nm using an ELISA reader. Normalization was conducted using a Pierce BCA Protein Assay Kit (Thermo Scientific, MA, USA).
Melanin content (%) = (ΔODsam/ΔODcon) × 100%, where ODsam and ODcon represent the optical densities of the sample and control, respectively.

[1] = ABTS radical cation scavenging assay; details: 100 μM
Procedure: For ABTS^+• scavenging experiments, ABTS^+• was generated by oxidizing ABTS using potassium persulfate. All test samples (Trolox [TR; positive material] and 1–15) were used at a final concentration of 100 μM. […] Both compounds share a common catechol structure. […] Similar results were obtained in the DPPH radical scavenging experiment. […] Compounds 4, 9, and 14, bearing a 4-hydroxy-3-methoxyphenyl, scavenged ABTS^+• moderately (23–51%).
3.15. 2,2′-Azino-bis(3-ethylbenzothiazoline-6-sulfonic Acid) (ABTS) Radical Cation Scavenging Assay
The effect of the 2-phenylbenzoxazole compounds 1–15 on radical scavenging was assessed using an ABTS assay, as previously reported. An ABTS aqueous solution (7 mM) was mixed with a K2S2O8 aqueous solution (2.45 mM) in equal volumes (each 20 mL) and incubated in the dark for 20 h at 25 °C to generate ABTS^+•. The ABTS^+• solution was then diluted with pure EtOH to adjust the absorbance of the solution to 0.7 ± 0.02 at 730 nm. The test samples (1–15 and Trolox [positive control]) were dissolved in a co-solvent of EtOH and DMSO (9:1, v/v) to make a 1 mM solution. The diluted ABTS^+• solution was mixed with the test sample solution at a volume ratio of 9:1 (90 μL:10 μL) and the mixture was stored for 2 min at 20 °C in the dark. The optical density was measured at 730 nm using an ELISA reader at 1 min intervals for 10 min. All test samples were used at a final concentration of 100 µM.
ABTS^+• radical scavenging activity (%) = [(ODcon − ODsam)/ODcon] × 100, where ODsam and ODcon represent the absorbances of the test sample and the control, respectively.

mushroom tyrosinase [2] = molecular target: T1, mushroom tyrosinase (Agaricus bisporus, UniProt C7FF04); assay: Kinetic study using mushroom tyrosinase (Lineweaver–Burk and Dixon plots); type: biochemical; details: for inhibition mode (Lineweaver–Burk plots): substrate L-dopa 0.5–16 mM; for Ki: substrate L-dopa 1, 2, 4, 8 mM, read-out: inhibition constant Ki (Dixon plot)
T1 construct: purchased Sigma-Aldrich (St. Louis, MO, USA)
Procedure: For the inhibition mechanism study of the 2-phenylbenzoxazole compounds, kinetic studies of mushroom tyrosinase were conducted. […] Kinetic experiments were performed using various concentrations of L-dopa. Lineweaver–Burk plots were obtained for each compound by plotting the inverse of the L-dopa concentration against the inverse of the initial rate of dopachrome production (Figure 4). In the Lineweaver–Burk plots (Figure 4B,C), the lines for compounds 8 and 13 merged at one point on the y-axis, whereas the lines for 3 (Figure 4A) merged at one point in the second quadrant.
These Dixon plots were obtained by plotting the inhibitor concentration against the inverse of the initial dopachrome production rate (Figure 5). The four lines for each Dixon plot were merged at one point in the second quadrant. The absolute x-coordinate of each merged point represents the Ki value of each compound.
3.4. Kinetic Study Experiment Using Mushroom Tyrosinase
Mushroom tyrosinase was incubated with 2-phenylbenzoxazole inhibitors (3, 8, or 13) in the presence of various concentrations (0.5–16 mM) of L-dopa to measure the initial dopachrome production rate. An aqueous substrate mixture, consisting of phosphate buffer (pH 6.5; 17.2 mM) and L-dopa (345 μM), was prepared. A 96-well plate containing the inhibitor DMSO solution (10 μL), aqueous mushroom tyrosinase solution (20 μL; 20 units), and aqueous substrate mixture (170 μL) in each well was incubated for 20 min at 37 °C. During incubation, the absorbance at 475 nm was recorded at 5 min intervals using an ELISA reader to prepare Lineweaver–Burk plots for each inhibitor.

mushroom tyrosinase [3] = molecular target: T1, mushroom tyrosinase; assay: Mushroom tyrosinase activity inhibition assay (L-tyrosine or L-dopa as substrate); type: biochemical; details: for IC50: mushroom tyrosinase, 37 °C, mean ± SEM of triplicates
Procedure: 3.3. Tyrosinase Activity Assay Using Mushroom Tyrosinase
The tyrosinase inhibitory activity of the 2-phenylbenzoxazoles was evaluated using a mushroom tyrosinase activity assay, following a previously described method. An aqueous substrate mixture, consisting of phosphate buffer (pH 6.5; 17.2 mM) and L-tyrosine or L-dopa (345 μM), was prepared. A 96-well plate containing the test sample in dimethyl sulfoxide (DMSO) solution (10 μL), aqueous mushroom tyrosinase solution (20 μL; 200 units), and aqueous substrate mixture (170 μL) in each well was incubated at 37 °C for 15 min for L-dopa and 30 min for L-tyrosine, respectively.

[4] = substrate L-dopa, 15 min, read-out: IC50 Values, L-Dopa
[5] = substrate L-tyrosine, 30 min, read-out: IC50 Values, L-Tyrosine

T1 sequence (C7FF04 1-392 limits assumed): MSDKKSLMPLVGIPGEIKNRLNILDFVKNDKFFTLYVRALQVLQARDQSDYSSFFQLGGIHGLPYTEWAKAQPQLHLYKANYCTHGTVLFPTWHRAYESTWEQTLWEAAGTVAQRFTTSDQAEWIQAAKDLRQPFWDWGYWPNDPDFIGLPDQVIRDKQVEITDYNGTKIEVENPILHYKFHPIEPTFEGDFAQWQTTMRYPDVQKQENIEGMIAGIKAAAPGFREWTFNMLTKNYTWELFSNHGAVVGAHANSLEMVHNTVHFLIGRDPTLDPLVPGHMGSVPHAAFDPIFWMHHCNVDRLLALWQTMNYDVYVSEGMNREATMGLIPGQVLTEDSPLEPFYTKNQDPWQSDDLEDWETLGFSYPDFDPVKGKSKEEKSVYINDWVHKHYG

Row | Compound | melanin content in B16F10 cells (B16F10 cells) | melanin content in B16F10 cells at 5 μM vs kojic acid (B16F10 cells) | ABTS+• scavenging activity (% inhibition) [1] | inhibition mode (Lineweaver–Burk plots) (mushroom tyrosinase [2]) | IC50 (mushroom tyrosinase [3]; [4]) | IC50 (mushroom tyrosinase [3]; [5]) | tyrosinase potency relative to kojic acid (mushroom tyrosinase [3]; substrate L-tyrosine) | Ki (mushroom tyrosinase [2])
1 | Cc1ccc2nc(-c3ccc(O)cc3O)oc2c1 [Compound 3, 4-(6-Methylbenzo[d]oxazol-2-yl)benzene-1,3-diol] | decreased the melanin content in a concentration-dependent manner | decreased the melanin content levels much more strongly than kojic acid | 57% | mixed-type inhibitor | 16.8 ± 0.57 µM | 0.51 µM | 28 times | –
2 | Oc1ccc(-c2nc3ccc(Cl)cc3o2)c(O)c1 [Compound 8, 4-(6-Chlorobenzo[d]oxazol-2-yl)benzene-1,3-diol] | decreased the melanin content in a concentration-dependent manner | decreased the melanin content levels much more strongly than kojic acid | 64% | competitive inhibitors | 20.4 ± 1.99 µM | 2.22 ± 0.16 µM | – | 12.5 µM
3 | Cc1ccc2oc(-c3ccc(O)cc3O)nc2c1 [Compound 13, 4-(5-Methylbenzo[d]oxazol-2-yl)benzene-1,3-diol] | decreased the melanin content in a concentration-dependent manner | – | 54% | competitive inhibitors | 20.8 ± 1.02 µM | 3.5 ± 0.07 µM | – | 17.2 µM
